Laboratory results published in patent US8377974B2 (Millennium Pharmaceuticals, Inc., priority 2004, dated 2013).

What follows are compounds tested against T1, human plasma protein factor Xa (Homo sapiens, UniProt P00742) (assay: Factor Xa IC50 determination: cleavage of paranitroanilide substrate S-2765 in 96-well plates). Conditions: fXa 1 nM, S-2765 100 μM, Tris buffered saline pH 7.4, room temperature.
T1 construct: measure proteolytic activity of the enzyme (factor Xa); purchased Haematologic Technologies (Essex Junction, Vt.); host or cells: human plasma
Format: biochemical
Summary of the method: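 Initial rates of S-2765 (100 μM final) cleavage, read at 405 nm for 2 min, fitted with a four-parameter equation to give IC50. Enzyme: 1 nM human plasma fXa, 5 min room-temperature preincubation with inhibitor (0.01 nM–10 μM) in 20 mM Tris, 150 mM NaCl, 5 mM CaCl2, 0.1% BSA, 5% DMSO, pH 7.4; duplicates.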

T1 sequence (P00742 235-488 limits assumed): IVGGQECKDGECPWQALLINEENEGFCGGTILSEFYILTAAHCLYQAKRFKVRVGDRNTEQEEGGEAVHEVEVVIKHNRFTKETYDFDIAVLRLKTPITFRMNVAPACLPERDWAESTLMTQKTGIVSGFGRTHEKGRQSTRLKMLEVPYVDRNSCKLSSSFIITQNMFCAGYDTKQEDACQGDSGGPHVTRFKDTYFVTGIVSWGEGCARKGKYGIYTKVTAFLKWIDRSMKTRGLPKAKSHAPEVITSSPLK
T1 sequence (P00742 41-179 partner limits assumed): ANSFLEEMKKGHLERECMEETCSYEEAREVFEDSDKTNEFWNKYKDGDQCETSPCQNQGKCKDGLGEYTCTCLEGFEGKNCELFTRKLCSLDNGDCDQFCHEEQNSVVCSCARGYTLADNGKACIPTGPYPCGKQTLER

Row | SMILES | IC50 [nM]
1 | CNC(=N)c1ccc(-c2nc(CNC(=O)c3ccc(Cl)s3)cs2)cc1 [Example 358, N-((2-(4-(N-Methylcarbamimidoyl)phenyl)thiazol-4-yl)methyl)-5-chlorothiophene-2-carboxamide] | ≥ 500
2 | CN(C)C(=N)c1ccc(-c2csc(CNC(=O)c3ccc(Cl)s3)n2)cc1 [Example 360, N-((4-(4-(N,N-Dimethylcarbamimidoyl)phenyl)thiazol-2-yl)methyl)-5-chlorothiophene-2-carboxamide] | ≥ 500
3 | CN1CCN=C1c1ccc(-c2csc(CNC(=O)c3ccc(Cl)s3)n2)cc1 [Example 361, 5-Chloro-N-((4-(4-(1-methyl-4,5-dihydro-1H-imidazol-2-yl)phenyl)thiazol-2-yl)methyl)thiophene-2-carboxamide] | ≥ 500
4 | CN(C)C(=N)c1ccc(-n2cnc(CNC(=O)c3ccc(Cl)s3)c2)cc1 [Example 364, N-((1-(4-(N,N-Dimethylcarbamimidoyl)phenyl)-1H-imidazol-4-yl)methyl)-5-chlorothiophene-2-carboxamide] | ≤ 100
5 | CN1CCN=C1c1ccc(-n2cnc(CNC(=O)c3ccc(Cl)s3)c2)cc1 [Example 365, 5-Chloro-N-((1-(4-(1-methyl-4,5-dihydro-1H-imidazol-2-yl)phenyl)-1H-imidazol-4-yl)methyl)thiophene-2-carboxamide] | ≤ 100
6 | CN(C)C(=N)c1ccc(-c2cncc(CNC(=O)c3ccc(Cl)s3)c2)cc1 [Example 369, N-((5-(4-(N,N-Dimethylcarbamimidoyl)phenyl)pyridin-3-yl)methyl)-5-chlorothiophene-2-carboxamide] | ≤ 100
7 | CN1CCN=C1c1ccc(-c2cncc(CNC(=O)c3ccc(Cl)s3)c2)cc1 [Example 370, 5-Chloro-N-((5-(4-(1-methyl-4,5-dihydro-1H-imidazol-2-yl)phenyl)pyridin-3-yl)methyl)thiophene-2-carboxamide] | ≤ 100
8 | CN(C)C(=N)c1ccc(-c2ccc(F)c(CNC(=O)c3ccc(Cl)s3)c2)cc1 [Example 374, N-((5-(4-(N,N-Dimethylcarbamimidoyl)phenyl)-2-fluorophenyl)methyl)-5-chlorothiophene-2-carboxamide] | ≤ 100
9 | CN1CCN=C1c1ccc(-c2ccc(F)c(CNC(=O)c3ccc(Cl)s3)c2)cc1 [Example 375, 5-Chloro-N-((5-(4-(1-methyl-4,5-dihydro-1H-imidazol-2-yl)phenyl)-2-fluorophenyl)methyl)thiophene-2-carboxamide] | ≤ 100
10 | CN(C)C(=N)c1ccc(-c2cc(CNC(=O)c3ccc(Cl)s3)ccc2F)cc1 [Example 377, N-((3-(4-(N,N-Dimethylcarbamimidoyl)phenyl)-4-fluorophenyl)methyl)-5-chlorothiophene-2-carboxamide] | ≤ 100
11 | CN1CCN=C1c1ccc(-c2cc(CNC(=O)c3ccc(Cl)s3)ccc2F)cc1 [Example 378, 5-Chloro-N-((3-(4-(1-methyl-4,5-dihydro-1H-imidazol-2-yl)phenyl)-4-fluorophenyl)methyl)thiophene-2-carboxamide] | 100 to 500
12 | CN(C)C(=N)c1ccc(-c2cccc(CNC(=O)c3ccc(Cl)s3)c2)cc1 [Example 380, N-((3-(4-(N,N-Dimethylcarbamimidoyl)phenyl)phenyl)methyl)-5-chlorothiophene-2-carboxamide] | ≤ 100
13 | CN1CCN=C1c1ccc(-c2cccc(CNC(=O)c3ccc(Cl)s3)c2)cc1 [Example 381, 5-Chloro-N-((3-(4-(1-methyl-4,5-dihydro-1H-imidazol-2-yl)phenyl)phenyl)methyl)thiophene-2-carboxamide] | ≤ 100
14 | CN1CCCN(c2ccc(-n3cc(CNC(=O)c4ccc(Cl)s4)nn3)cn2)CC1 [Example 383, 5-Chloro-N-((1-(6-(4-methyl-1,4-diazepan-1-yl)pyridin-3-yl)-1H-1,2,3-triazol-4-yl)methyl)thiophene-2-carboxamide] | ≤ 100
15 | O=C(NCc1cn(-c2ccc(N3CCCNCC3)nc2)nn1)c1ccc(Cl)s1 [Example 384, N-((1-(6-(1,4-Diazepan-1-yl)pyridin-3-yl)-1H-1,2,3-triazol-4-yl)methyl)-5-chlorothiophene-2-carboxamide] | ≤ 100
16 | O=C(NCc1cn(-c2ccc(N3CCCOCC3)nc2)nn1)c1ccc(Cl)s1 [Example 385, N-((1-(6-(1,4-Oxazepan-4-yl)pyridin-3-yl)-1H-1,2,3-triazol-4-yl)methyl)-5-chlorothiophene-2-carboxamide] | 100 to 500
17 | O=C(NCc1cn(-c2ccc(N3CCOCC3)nc2)nn1)c1ccc(Cl)s1 [Example 386, 5-Chloro-N-((1-(6-morpholinopyridin-3-yl)-1H-1,2,3-triazol-4-yl)methyl)thiophene-2-carboxamide] | 100 to 500
18 | O=C(NCc1cn(-c2ccc(N3CCOCC3=O)nc2)nn1)c1ccc(Cl)s1 [Example 387, 5-Chloro-N-((1-(6-(3-oxomorpholino)pyridin-3-yl)-1H-1,2,3-triazol-4-yl)methyl)thiophene-2-carboxamide] | ≤ 100
19 | O=C(NCc1cn(-c2ccc(N3CCCCC3=O)nc2)nn1)c1ccc(Cl)s1 [Example 388, 5-Chloro-N-((1-(6-(2-oxopiperidin-1-yl)pyridin-3-yl)-1H-1,2,3-triazol-4-yl)methyl)thiophene-2-carboxamide] | ≤ 100
20 | O=C(NCc1cn(-c2ccc(-n3ccccc3=O)nc2)nn1)c1ccc(Cl)s1 [Example 389, 5-Chloro-N-((1-(6-(2-oxopyridin-1(2H)-yl)pyridin-3-yl)-1H-1,2,3-triazol-4-yl)methyl)thiophene-2-carboxamide] | ≤ 100
21 | O=C(NCc1cn(-c2ccc(N3CCNCC3)nc2)nn1)c1ccc(Cl)s1 [Example 390, 5-Chloro-N-((1-(6-(piperazin-1-yl)pyridin-3-yl)-1H-1,2,3-triazol-4-yl)methyl)thiophene-2-carboxamide] | 100 to 500
22 | CN1CCN(c2ccc(-n3cc(CNC(=O)c4ccc(Cl)s4)nn3)cn2)CC1 [Example 391, 5-Chloro-N-((1-(6-(4-methylpiperazin-1-yl)pyridin-3-yl)-1H-1,2,3-triazol-4-yl)methyl)thiophene-2-carboxamide] | 100 to 500
23 | O=C(NCc1cn(-c2ccc(N3CCCCC3)nc2)nn1)c1ccc(Cl)s1 [Example 392, 5-Chloro-N-((1-(6-(piperidin-1-yl)pyridin-3-yl)-1H-1,2,3-triazol-4-yl)methyl)thiophene-2-carboxamide] | 100 to 500
24 | O=C(NCC1CC(c2ccc(Nc3ccnc4c(C(F)(F)F)cccc34)cc2)=NO1)c1ccc(Cl)s1 (stereo not drawn) [Example 393, 5-Chloro-N-((3-(4-(8-(trifluoromethyl)quinolin-4-ylamino)phenyl)-4,5-dihydroisoxazol-5-yl)methyl)thiophene-2-carboxamide] | ≥ 500

Other lines, results leading:

Row | IC50 [nM] | SMILES
25 | 100 to 500 | N=C(c1ccc(-c2coc(CNC(=O)c3ccc(Cl)s3)n2)cc1)N1CCCC1 [Example 359, 5-Chloro-N-((4-(4-(imino(pyrrolidin-1-yl)methyl)phenyl)oxazol-2-yl)methyl)thiophene-2-carboxamide]
26 | ≥ 500 | N=C(c1ccc(-c2csc(CNC(=O)c3ccc(Cl)s3)n2)cc1)N1CCCC1 [Example 362, 5-Chloro-N-((4-(4-(imino(pyrrolidin-1-yl)methyl)phenyl)thiazol-2-yl)methyl)thiophene-2-carboxamide]
27 | ≥ 500 | N=C(c1ccc(-c2csc(CNC(=O)c3ccc(Cl)s3)n2)cc1)N1CCCCC1 [Example 363, 5-Chloro-N-((4-(4-(imino(piperidin-1-yl)methyl)phenyl)thiazol-2-yl)methyl)thiophene-2-carboxamide]
28 | ≤ 100 | N=C(c1ccc(-n2cnc(CNC(=O)c3ccc(Cl)s3)c2)cc1)N1CCC1 [Example 366, N-((1-(4-(Azetidin-1-yl(imino)methyl)phenyl)-1H-imidazol-4-yl)methyl)-5-chlorothiophene-2-carboxamide]
29 | ≤ 100 | N=C(c1ccc(-n2cnc(CNC(=O)c3ccc(Cl)s3)c2)cc1)N1CCCC1 [Example 367, 5-Chloro-N-((1-(4-(imino(pyrrolidin-1-yl)methyl)phenyl)-1H-imidazol-4-yl)methyl)thiophene-2-carboxamide]
30 | ≤ 100 | N=C(c1ccc(-n2cnc(CNC(=O)c3ccc(Cl)s3)c2)cc1)N1CCCCC1 [Example 368, 5-Chloro-N-((1-(4-(imino(piperidin-1-yl)methyl)phenyl)-1H-imidazol-4-yl)methyl)thiophene-2-carboxamide]
31 | ≤ 100 | N=C(c1ccc(-c2cncc(CNC(=O)c3ccc(Cl)s3)c2)cc1)N1CCC1 [Example 371, N-((5-(4-(Azetidin-1-yl(imino)methyl)phenyl)pyridin-3-yl)methyl)-5-chlorothiophene-2-carboxamide]
32 | ≤ 100 | N=C(c1ccc(-c2cncc(CNC(=O)c3ccc(Cl)s3)c2)cc1)N1CCCC1 [Example 372, 5-Chloro-N-((5-(4-(imino(pyrrolidin-1-yl)methyl)phenyl)pyridin-3-yl)methyl)thiophene-2-carboxamide]
33 | ≤ 100 | N=C(c1ccc(-c2cncc(CNC(=O)c3ccc(Cl)s3)c2)cc1)N1CCCCC1 [Example 373, 5-Chloro-N-((5-(4-(imino(piperidin-1-yl)methyl)phenyl)pyridin-3-yl)methyl)thiophene-2-carboxamide]
34 | ≤ 100 | N=C(c1ccc(-c2ccc(F)c(CNC(=O)c3ccc(Cl)s3)c2)cc1)N1CCCC1 [Example 376, 5-Chloro-N-((5-(4-(imino(pyrrolidin-1-yl)methyl)phenyl)-2-fluorophenyl)methyl)thiophene-2-carboxamide]
35 | ≤ 100 | N=C(c1ccc(-c2cc(CNC(=O)c3ccc(Cl)s3)ccc2F)cc1)N1CCCC1 [Example 379, 5-Chloro-N-((3-(4-(imino(pyrrolidin-1-yl)methyl)phenyl)-4-fluorophenyl)methyl)thiophene-2-carboxamide]
36 | ≤ 100 | N=C(c1ccc(-c2cccc(CNC(=O)c3ccc(Cl)s3)c2)cc1)N1CCCC1 [Example 382, 5-Chloro-N-((3-(4-(imino(pyrrolidin-1-yl)methyl)phenyl)phenyl)methyl)thiophene-2-carboxamide]
